Experimental data published in patent publication US8765809B2, “Ester derivative and use thereof” (Ajinomoto Co., Inc., priority 2006, dated 2014).

Legend:
[1] = test system: auricle of hairless mouse; assay: Measurement of external blood circulation enhancing action: vasodilatory effect (red spots) after application to the ear; format: in vivo, hairless mouse (HR-1, female); parameters: key to Vasodilatory effect for hairless mouse (red spots) / Vasodilatory effect on hairless mouse (red spots): O: clear red spots is confirmed; Δ: weak red spots is confirmed; x: no development of red spots; conditions: for Vasodilatory effect for hairless mouse (red spots): 5 wt % (liquid paraffin), first column of Table 2; for vasodilatory / blood circulation enhancing effect, summary in words: summary of Tables 2 to 4; for Vasodilatory effect on hairless mouse (red spots) / weak red spots were observed at, time after application: 5 wt % (ethanol)
Description: The compound of each Example, capsinoid derivative and capsaicin were compared for vasodilatory effect using auricle of hairless mouse. A sample was applied to the right ear of hairless mouse (HR-1, female), and a control was applied to the left ear. […]

[2] = Stability of compound: recovery rate (isolation yield) after contact with silica gel (PTLC); format: physicochemical; conditions: for recovery at 30 min: PTLC, silica gel stirred with ethyl acetate 30 min, read-out: isolation yield (recovery rate) after PTLC, taken as stability upon contact with silica gel; for stability upon contact with silica gel: isolation and purification by PTLC
Procedure: As mentioned above, the reaction yields of the compounds of respective Examples were determined by applying the products obtained by a condensation reaction to PTLC and stirring the silica gel containing the object compound with ethyl acetate for 30 min, followed by filtration and concentration under reduced pressure. Since the condensation reaction proceeds at a conversion rate of not less than 90% for all compounds, the recovery rate (yield) of each compound is considered to reflect stability upon contact of the compound with the silica gel.
Using vanillyl alcohol (1.70 g, 11.0 mmol) instead of homovanillyl alcohol, and n-decanoic acid (1.72 g, 10 mmol) instead of 8-methylnonanoic acid in Example 1, similar reaction was performed. The residue was purified by PTLC to find that the yield of the obtained vanillyl decanoate was 1.33 g (4.31 mmol, 43.1%), and vanillyl decanoate was decomposed (i.e., unstabilized) by the contact with silica gel.

[3] = Solubility of sample in liquid paraffin (note to Table 2); format: physicochemical; conditions: 5 wt % in liquid paraffin
[4] = application of 5 wt % in liquid paraffin

Row | recovery at 30 min [2] [%] | stability upon contact with silica gel [2] | solubility (note, words) [3] | Compound | Vasodilatory effect for hairless mouse (red spots) [1] | blood circulation enhancing effect (note, words) [1, 4] | red spots disappeared in [1, 4] | vasodilatory / blood circulation enhancing effect, summary in words [1] | Vasodilatory effect on hairless mouse (red spots) [1] | weak red spots were observed at, time after application [1]
1 | 93.2 | far stabler than vanillyl decanoate | – | COc1cc(CCOC(=O)CCCCCCC(C)C)ccc1O [compound I, homovanillyl 8-methylnonanoate] | Δ | effect was weak and | disappeared in 1 hr | weak blood circulation enhancing effect | – | –
2 | – | – | sparingly soluble, thus red | COc1cc(CCOC(=O)CCCCCC(C)C)ccc1O [compound I-1, homovanillyl 7-methyloctanoate] | x | – | – | weak blood circulation enhancing effect | Δ | Weak red spots were observed at 20 min
3 | – | – | sparingly soluble, thus red | COc1cc(CCOC(=O)CCCCC(C)C)ccc1O [compound I-2, homovanillyl 6-methylheptanoate] | x | – | – | weak blood circulation enhancing effect | Δ | Weak red spots were observed at 20 min
4 | – | – | sparingly soluble, thus red | COc1cc(CCOC(=O)CCCC(C)C)ccc1O [compound I-3, homovanillyl 5-methylhexanoate] | x | – | – | weak blood circulation enhancing effect | Δ | Weak red spots were observed at 20 min
5 | – | – | – | COc1cc(CO)ccc1O [vanillyl alcohol, reference compound] | x | Application of 5 wt %: no blood | – | – | x | –
6 | 43.1 | decomposed | – | CCCCCCCCCC(=O)OCc1ccc(O)c(OC)c1 [vanillyl decanoate, reference compound] | – | – | – | – | – | –
